Experimental data as given in PMC4634205 (Cancer research, 2015).
“Also recorded” adds a separate entry of the source. Counter-ions that a name gives are not always drawn. Like-named read-outs stand apart in the source and are kept apart here.

What was measured:
[1] = Vemurafenib pharmacokinetics in huPXR/huCAR/huCYP3A4/3A7 mice; type: in vivo, mouse; settings: for AUC: AUCall of vemurafenib
CYP3A4 [2] = tested on: CYP3A4
Cyp2b = test: Western blot of hepatic microsomal Cyp2b; type: in vivo, mouse; settings: huPXR/huCAR/huCYP3A4/3A7 mice
[3] = type: in vivo, mouse
SLCO1B1 = settings: cited from earlier work
[4] = tested on: OH-vemurafenib formation in pooled HLM; test: Inhibition of OH-vemurafenib formation in pooled HLM by CYP inhibitors; type: in vitro ADME, human; settings: pooled HLM 0.2 mg/mL, 60 μM vemurafenib, 10 min; 1 μM ketoconazole, 2 μM sulfaphenazole
Abcb1b = test: TaqMan RT-PCR of small intestinal Abcb1b mRNA; type: in vivo, mouse
Abcb1a = test: TaqMan RT-PCR of small intestinal Abcb1a mRNA; type: in vivo, mouse
Abcg2 = test: TaqMan RT-PCR of small intestinal Abcg2 mRNA; type: in vivo, mouse; settings: huPXR/huCAR/huCYP3A4/3A7 mice treated with RIF
Cyp1a = test: Western blot of hepatic microsomal Cyp1a; type: in vivo, mouse; settings: huPXR/huCAR/huCYP3A4/3A7 mice, MBP vemurafenib 100 mg/kg b.i.d. four days
COLO205 xenografts = settings: cited from earlier work
ABCB1 = settings: MDCK-ABCB1 cell line; cited from earlier work
[5] = crystalline form, physiological pH; cited from earlier work
CYP3A4 [6] = target: T1, CYP3A4 (Homo sapiens, UniProt P08684); test: biochemical
Target sequence in this assay (P08684 2-503): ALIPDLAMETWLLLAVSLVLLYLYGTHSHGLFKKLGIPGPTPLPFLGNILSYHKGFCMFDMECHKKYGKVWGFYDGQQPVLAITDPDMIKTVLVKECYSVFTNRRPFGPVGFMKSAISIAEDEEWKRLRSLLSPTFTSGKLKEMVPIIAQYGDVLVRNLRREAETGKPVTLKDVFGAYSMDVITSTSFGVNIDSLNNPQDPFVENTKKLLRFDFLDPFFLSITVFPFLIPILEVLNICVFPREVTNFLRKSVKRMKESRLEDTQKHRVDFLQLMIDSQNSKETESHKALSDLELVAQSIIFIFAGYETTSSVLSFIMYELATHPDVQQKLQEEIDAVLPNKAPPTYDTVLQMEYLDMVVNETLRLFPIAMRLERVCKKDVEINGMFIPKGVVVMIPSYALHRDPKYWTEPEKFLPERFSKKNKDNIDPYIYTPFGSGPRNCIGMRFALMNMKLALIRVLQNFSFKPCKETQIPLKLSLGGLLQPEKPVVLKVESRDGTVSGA

[7] = read-out: Cmax (mean) in patients at steady state; cited from earlier work
[8] = Vemurafenib pharmacokinetics in huPXR/huCAR mice; type: in vivo; settings: male, mouse, whole blood, po, 50 mg/kg, AUCall of vemurafenib, RIF pre-treatment, Figure 3A
[9] = Apparent kinetics of OH-vemurafenib formation in MLM; type: in vitro ADME, mouse; settings: Hill equation fit
PXR = target: T2, PXR (Homo sapiens, UniProt O75469); test: PXR-transactivation assay in DPX2 cells
T2 sequence (O75469 1-434): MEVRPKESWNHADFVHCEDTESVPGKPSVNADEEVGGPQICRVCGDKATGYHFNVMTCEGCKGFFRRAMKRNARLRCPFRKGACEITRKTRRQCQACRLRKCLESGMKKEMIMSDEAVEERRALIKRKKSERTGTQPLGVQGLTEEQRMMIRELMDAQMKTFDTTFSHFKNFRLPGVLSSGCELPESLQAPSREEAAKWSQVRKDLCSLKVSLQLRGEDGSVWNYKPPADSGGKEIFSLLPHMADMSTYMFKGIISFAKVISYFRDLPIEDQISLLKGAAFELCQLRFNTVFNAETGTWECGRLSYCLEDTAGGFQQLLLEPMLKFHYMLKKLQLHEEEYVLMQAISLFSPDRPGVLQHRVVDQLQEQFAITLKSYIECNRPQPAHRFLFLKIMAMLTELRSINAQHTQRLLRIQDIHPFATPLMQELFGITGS

CYP3A4 [10] = test: TaqMan RT-PCR of small intestinal CYP3A4 mRNA; type: in vivo, mouse; settings: MBP vemurafenib 100 mg/kg b.i.d. four days
[11] = Microsomal stability in pooled human liver microsomes; type: in vitro ADME; settings: 1 μM, 0.2 mg/mL pooled HLM, presence and absence of NADPH, up to 50 min
CYP3A4 [12] = settings: patients at steady state; cited from earlier work
CYP3A4 [13] = target: T1, CYP3A4
Target sequence in this assay (P08684 whole entry): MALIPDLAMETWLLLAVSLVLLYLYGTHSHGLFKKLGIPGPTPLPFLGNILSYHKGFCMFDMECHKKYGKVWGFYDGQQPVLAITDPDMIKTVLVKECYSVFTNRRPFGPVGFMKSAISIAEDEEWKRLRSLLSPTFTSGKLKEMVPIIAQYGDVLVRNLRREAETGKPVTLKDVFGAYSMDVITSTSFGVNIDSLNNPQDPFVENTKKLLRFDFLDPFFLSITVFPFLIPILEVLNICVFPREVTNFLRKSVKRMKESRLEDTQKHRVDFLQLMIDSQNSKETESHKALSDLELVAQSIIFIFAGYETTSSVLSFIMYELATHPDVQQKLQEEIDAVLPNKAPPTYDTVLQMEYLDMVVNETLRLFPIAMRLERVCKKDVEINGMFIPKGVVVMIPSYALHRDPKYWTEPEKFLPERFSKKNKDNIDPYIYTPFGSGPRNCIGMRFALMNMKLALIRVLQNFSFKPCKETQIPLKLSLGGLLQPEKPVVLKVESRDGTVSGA

[14] = Apparent kinetics of OH-vemurafenib formation in HLM; type: in vitro ADME, human
CYP2D6 = settings: patients at steady state; cited from earlier work
[15] = tested on: BRAF^V600E-positive metastatic melanoma; settings: single agent, all patients with BRAF V600E-positive metastatic melanoma; cited from earlier work
[16] = cited from earlier work
[17] = type: in vivo; settings: huPXR/huCAR/huCYP3A4/3A7, mouse, whole blood, po, 100 mg/kg
DPX2 cells = test: Toxicity in DPX2 cells in the PXR-transactivation assay; type: cell-based; settings: top two concentrations (41.67 and 125 μM), 48 hours
CYP2C9 [18] = target: T3, CYP2C9 (Homo sapiens, UniProt P11712); settings: 60 μM compound, 400 pmol/mL enzyme, 15 min
T3 sequence (P11712 whole entry): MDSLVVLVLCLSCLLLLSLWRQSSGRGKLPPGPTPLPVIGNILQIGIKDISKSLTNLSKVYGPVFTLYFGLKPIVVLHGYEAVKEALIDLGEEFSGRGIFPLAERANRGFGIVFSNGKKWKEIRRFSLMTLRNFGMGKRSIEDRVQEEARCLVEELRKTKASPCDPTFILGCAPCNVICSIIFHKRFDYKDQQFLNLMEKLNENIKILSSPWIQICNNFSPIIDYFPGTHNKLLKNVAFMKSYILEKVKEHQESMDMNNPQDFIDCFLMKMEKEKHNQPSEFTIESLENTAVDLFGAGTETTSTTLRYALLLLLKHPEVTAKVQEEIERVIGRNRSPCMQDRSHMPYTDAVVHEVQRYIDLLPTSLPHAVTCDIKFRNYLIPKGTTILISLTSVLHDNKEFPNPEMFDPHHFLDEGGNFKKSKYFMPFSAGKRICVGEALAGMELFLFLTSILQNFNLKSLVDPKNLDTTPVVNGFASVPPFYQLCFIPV

CYP1A2 = settings: patients at steady state; cited from earlier work
CYP2C9 [19] = target: T3, CYP2C9; test: in vitro; settings: recombinant CYP2C9, pH 7.4
[20] = huPXR/huCAR/huCYP3A4/3A7 mice treated with RIF
[21] = MBP vemurafenib 100 mg/kg b.i.d. four days

Molecule: CCC1(c2ccccc2)C(=O)NC(=O)NC1=O [PB, Phenobarbital]
- Effect of PB pre-treatment on vemurafenib kinetic parameters ([1]; PB 80 mg/kg i.p. for three days, huPXR/huCAR/huCYP3A4/3A7 mice): no effect
- Hepatic CYP3A4 protein (Western blot) (CYP3A4 [2]; mouse, in vivo): weakly inducing
- Hepatic Cyp2b / Cyp2b10 protein (Western blot) (Cyp2b): induction

Molecule: CC(=O)[C@H]1[C@H](C#N)C[C@H]2[C@@H]3CC=C4C[C@@H](O)CC[C@]4(C)[C@H]3CC[C@@]21C [PCN, 5-pregnenolone-3β-ol-20-one-16α-carbonitrile]
- Effect of PCN pre-treatment on vemurafenib clearance ([3]; PCN 10 mg/kg i.p. three days, Cyp3a null and huCYP3A4/3A7 animals): enhanced clearance equally well
- Hepatic CYP3A4 protein (Western blot) (CYP3A4 [2]; huCYP3A4/3A7 mice, PCN three days): effectively induced

Molecule: COc1cc2c(cc1OC)CN(CCc1ccc(NC(=O)c3cccc4c(=O)c5cccc(OC)c5[nH]c34)cc1)CC2 [elacridar, Elacridar hydrochloride]
- Inhibition of SLCO1B1 (SLCO1B1): known to inhibit

Molecule: CC(=O)N1CCN(c2ccc(OCC3COC(Cn4ccnc4)(c4ccc(Cl)cc4Cl)O3)cc2)CC1 (stereo not drawn) [ketoconazole]
- Inhibition of OH-vemurafenib formation [4]: significantly inhibited

Molecule: CO[C@H]1/C=C/O[C@@]2(C)Oc3c(C)c(O)c4c(O)c(c(/C=N/N5CCN(C)CC5)c(O)c4c3C2=O)NC(=O)/C(C)=C\C=C\[C@H](C)[C@H](O)[C@@H](C)[C@@H](O)[C@@H](C)[C@H](OC(C)=O)[C@@H]1C [rifampicin]
- Change in mRNA for Abcb1b in the small intestine (Abcb1b; [20]): no change
- Increase in mRNA for Abcb1a in the small intestine (Abcb1a; [20]): 4.7 fold
- Change in mRNA for Abcg2 in the small intestine (Abcg2): no change

Molecule: Nc1ccc(S(=O)(=O)Nc2ccnn2-c2ccccc2)cc1 [sulfaphenazole]
- Inhibition of OH-vemurafenib formation [4]: partial decrease; also recorded: small but statistically significant decrease

Molecule: CCCS(=O)(=O)Nc1ccc(F)c(C(=O)c2c[nH]c3ncc(-c4ccc(Cl)cc4)cc23)c1F [vemurafenib, Vemurafenib]
- Hepatic Cyp1a protein (Western blot) (Cyp1a): moderate induction
- AUC0-24 necessary to effect regression of COLO205 xenografts (COLO205 xenografts): 300 µM·h
- AUC ([1]; male, huPXR/huCAR/huCYP3A4/3A7, mouse, whole blood, po, 50 mg/kg, RIF alone, Figure 5A): 90 ± 13 µg·h/mL
- AUC ([1]; male, huPXR/huCAR/huCYP3A4/3A7, mouse, whole blood, po, 50 mg/kg, huPXR/huCAR/huCYP3A4/3A7 mice, RIF pre-treatment, Figure 3A): 121 ± 18 µg·h/mL
- AUC ([1]; male, huPXR/huCAR/huCYP3A4/3A7, mouse, whole blood, po, 50 mg/kg, huPXR/huCAR/huCYP3A4/3A7 mice, vehicle pre-treatment, Figure 3A): 432 ± 169 µg·h/mL
- AUC ([1]; male, huPXR/huCAR/huCYP3A4/3A7, mouse, whole blood, po, 50 mg/kg, vehicle (CO) alone, Figure 5A): 391 ± 112 µg·h/mL
- AUC ([1]; male, huPXR/huCAR/huCYP3A4/3A7, mouse, whole blood, po, 50 mg/kg, vehicle (CO) then elacridar, Figure 5A): 684 ± 85 µg·h/mL
- Cmax ([1]; male, huPXR/huCAR/huCYP3A4/3A7, mouse, whole blood, po, 50 mg/kg, Cmax of vemurafenib, vehicle (CO) then elacridar, Figure 5A): 37800 ± 3500 ng/mL
- ABCB1 interaction (ABCB1): both an ABCB1 substrate and inhibitor
- Aqueous solubility [5]: 0.01 to 10 µg/mL
- Change in small intestinal Abcb1b mRNA expression (Abcb1b; [21]): no change
- IC50 (CYP3A4 [6]): 14.9 µM
- Change in small intestinal Abcb1a mRNA expression (Abcb1a; [21]): no change
- Cmax [7]: 86 ± 32 µM
- Decrease in Cmax and AUCall and increase in CL in huCYP3A4/3A7 PCN group relative to Cyp3aKO/Cyp3a13+/+ PCN group ([3]; vemurafenib 50 mg/kg oral after PCN for three days): not statistically significant
- AUC [8]: 75 ± 33 µg·h/mL
- S50 of OH-vemurafenib formation [9]: 23.8 ± 4.9 µM
- Vmax of OH-vemurafenib formation [9]: 467 ± 54 peak area/min/mg
- EC50 (PXR): 8.13 µM
- EMAX of PXR activation (PXR; DPX2 cells, 48 hours, fold change vs vehicle control): 8.54 fold
- Change in small intestinal CYP3A4 mRNA expression (CYP3A4 [10]): no change
- Hepatic CYP3A4 protein (Western blot) (CYP3A4 [2]; huPXR/huCAR/huCYP3A4/3A7 mice): weak induction
- Metabolic stability [11]: highly stable
- Decrease in AUC0-last of the CYP3A4-specific probe midazolam (CYP3A4 [12]): 39%
- Generation of OH-vemurafenib by recombinant CYP (CYP3A4 [13]; 60 μM compound, 400 pmol/mL enzyme, 15 min): formed
- Affinity for vemurafenib, CYP3A4 relative to CYP2C9 (CYP3A4 [13]; S50 CYP3A4 vs CYP2C9): 2 fold
- Vmax for HLM relative to MLM ([14]; HLM vs MLM): approximately 10 fold
- S50 of OH-vemurafenib formation ([14]; HLM, Hill equation fit): 23.2 ± 0.8 µM
- Vmax of OH-vemurafenib formation ([14]; HLM, Hill equation fit): 4879 ± 108 peak area/min/mg
- Increase in AUC0-last of the CYP2D6 probe dextromethorphan (CYP2D6): 47%
- Hepatic Cyp2b / Cyp2b10 protein (Western blot) (Cyp2b): weak induction
- Objective tumour response [15]: 48%
- Recovered radioactivity in the parental form ([16]; 0 – 48 hr period): ≥ 94%
- Recovered radioactivity in the parental form ([16]; 48 – 96 hr period): 55.5 ± 20.1%
- Time for 95% of the radioactive dose to be recovered [16]: 18 days
- Total dose recovered within the first 96 hours [16]: 68.5%
- Radioactive dose recovered in faeces ([16]; over 18 days): 94%
- Radioactive dose recovered in urine ([16]; over 18 days): 1%
- AUC [17]: 1140 ± 242 µM·h
- Cmax [17]: 122 ± 19.7 µM
- Toxicity to DPX2 cells (DPX2 cells): highly toxic
- Generation of OH-vemurafenib by recombinant CYP (CYP2C9 [18]): formed
- Increase in AUC0-last of the CYP1A2 probe caffeine (CYP1A2): 160%
- Km at 0.15 h (CYP2C9 [19]): 20.4 ± 1.7 µM

Molecule: monohydroxy-vemurafenib [OH-vemurafenib]
- OH-vemurafenib as share of the total dose ([16]; 48 – 96 hr samples): 3.4%
- OH-vemurafenib share of recovered radioactivity ([16]; 48 – 96 hr samples): 13.7%
